PMC8000840, “Novel IMB16-4 Compound Loaded into Silica Nanoparticles Exhibits Enhanced Oral Bioavailability and Increased Anti-Liver Fibrosis In Vitro” (Molecules, 2021)
≈ marks a conversion by molar mass, not a printed value.

Tests used:
[1] = Equilibrium concentration (solubility) study in water; format: physicochemical; settings: distilled water; raw IMB16-4 in water, 25 ± 2 °C, equilibrium about 24 h
Experimental: An excess amount of raw IMB16-4 was added into 5 mL of distilled water at 25 ± 2 °C. The raw IMB16-4 solution at equilibrium time (about 24 h) was withdrawn and filtered using a 0.22 μm membrane. The subsequent filtrate was diluted with internal standard (4′-Chloroacetanilide) acetonitrile solution and analyzed by HPLC-MS/MS analysis (Thermo LTQ XL, USA). The standard curve for IMB16-4 was the linear (R^2 > 0.992) over the concentration range of 0.3~1200.0 ng/mL. The quantitative ion pair of IMB16-4 and internal standard quantitative were m/z = 499.9/196.0 and m/z = 168.04/126.1, respectively.

[2] = Oral pharmacokinetics study; format: in vivo, Sprague–Dawley (SD) rats; settings: SD rats, oral gavage 100 mg/kg
Experimental: The mice were maintained under a specific pathogen-free (SPF) environment with a 12 h light/dark cycle. SD rats (body weight 200 ± 20 g) were fasted overnight and divided into two groups. Raw IMB16-4 and IMB16-4-MSNs were given orally by gavages at a dose of 100 mg/kg, respectively. Before administering, both IMB16-4-MSNs and raw IMB16-4 were dispersed in 0.5% CMC-Na aqueous solution, respectively. Blood samples were collected from the eye socket vein at time points of 0.17, 0.5, 1, 2, 3, 4, 6, 8 and 12 h after dosing. Plasma samples were collected by centrifuging at 3000 rpm for 10 min and were then stored at −20 °C until analysis. Plasma samples were mixed with internal standard (4′-Chloroacetanilide) acetonitrile solution. Then, the mixture was vortex-mixed for 10 s. After centrifugation at 15,000 rpm for 10 min, the supernatant was used for HPLC-MS/MS analysis (AB SCIEX 6500 Qtrap, USA). The condition of the capillary voltage was −4500 V. The temperature was 500 °C. The mobile phase comprised acetonitrile and 10 mM of ammonium acetate aqueous solution. Analysis was carried out on an Xselect HSS T3 column (2.1 × 100 mm, 2.5 μm, Waters) in gradient elution. The column temperature was 40 °C and the flow rate was 0.3 mL/min. The standard curve for IMB16-4 was the linear (R^2 > 0.992) over the concentration range of 4~2048 ng/mL. The quantitative ion pairs of IMB16-4 and internal standard quantitative were m/z = 500.0/195.7 and m/z = 168.0/126.1, respectively. The pharmacokinetic parameters were obtained using statistic software DAS2.0.

[3] = In vitro dissolution, USP II paddle method; format: physicochemical; settings: release medium, 12 h, 37 °C, 3% SDS
Experimental: Dissolution studies were conducted using a USP II paddle method (100 rpm, 37 °C, and 900 mL dissolution medium) with a dissolution tester (ZRS-8LD, China). The release of IMB16-4 and IMB16-4-MSNs was performed in pH 1.0 hydrochloric acid solution and pH 6.8 phosphate buffer solutions, containing 3% (w/v) SDS, respectively. All release studies were carried out in triplicate. At predetermined time intervals, 5 mL of sample solution was withdrawn from the release medium and filtered using a 0.22 μm membrane filter before running the HPLC analysis. An equivalent amount of fresh medium was added to maintain a constant dissolution volume.

[4] = tested on: α-SMA, TGF-β1 and MMP2 protein levels in LX-2 cells; assay: In vitro antifibrotic effects, Western blot of hepatic fibrogenic markers after TGFβ1 stimulation; format: cell-based, human; settings: IMB16-4 2 µM, TGFβ1 2 ng/mL, 24 h
Experimental: After ultraviolet sterilization, raw IMB16-4, IMB16-4-MSNs and MSNs were suspended in water, respectively. Another group of raw IMB16-4 was suspended in DMSO. The concentration of IMB16-4 was 2 mM. Then, 2µL of solution containing IMB16-4 was added into 2 mL of serum-free culture with TGFβ1. LX-2 cells were cultured as described above. LX-2 cells were seeded in a 6-well plate, cultured in DMEM/GlutaMAX I, containing 10% fetal bovine serum (FBS) in 5% CO2 atmosphere at 37 °C. Serum-free culture was replaced until the cells reached 90 ≈ 95% confluence. After 24 h, cells were treated with TGFβ1 (2 ng/mL) and IMB16-4 (2 µM) for 24 h. Then, cells were washed with phosphate buffer saline (PBS) and protein was extracted in radio-immunoprecipitation assay (RIPA) buffer. Then mixture was centrifuged at 12,000 rpm at 4 °C for 20 min. The supernatant was collected, and the total protein was determined using the bicinchoninic acid (BCA) protein assay kit (Beyotime Biotechnology, China). Samples were applied to the 10% SDS-PAGE gel. Then, the protein bands were transferred to a polyvinylidene difluoride (PVDF) membrane (Millipore Corp, Atlanta, GA, USA) and the membrane was blocked for 1 h with 5% nonfat milk. […] The protein bands were analyzed on an imager (Tanon5200, China).

NAFLD model rats = tested on: NAFLD model rats; design: method as in PMID 23752471, PMID 30573812; settings: NAFLD model rats ref 18, 19; cited from earlier work

solubility [1] [µg/mL] | CLz/F [2] | Tmax ([2]; Sprague-Dawley, rat, plasma) [h] | Cmax ([2]; Sprague-Dawley, rat, plasma, in 0.5% CMC-Na) [µg/mL] | AUC ([2]; Sprague-Dawley, rat, plasma, read-out: AUC0≈12 h) [µg·h/mL] | MRT ([2]; Sprague-Dawley, rat, plasma, read-out: MRT0≈12 h) [h] | amount of dissolved IMB16-4 [3] | Compound | protein levels of α-SMA, TGF-β1 and MMP2 (antifibrotic effect) ([4]; dissolved by DMSO) | protein levels of α-SMA, TGF-β1 and MMP2 (antifibrotic effect) ([4]; suspended in sterile water) | hepatoprotective effects (NAFLD model rats)
0.0432 ± 0.0091 (≈ 0.0863 µM) | 54.70 ± 23.57 | 3.43 ± 1.4 | 0.18 ± 0.04 | 1.24 ± 0.31 | 5.18 ± 0.77 | about 40% | O=C(Nc1cc(Cl)c(Cl)c(Cl)c1)c1ccccc1NS(=O)(=O)c1cccc([N+](=O)[O-])c1 [IMB16-4, N-(3,4,5-trichlorophenyl)-2(3-nitrobenzenesulfonamido) benzamide] | showed potential anti-liver fibrosis effects. However, the differences are not significant | poor inhibition effect | –
– | – | – | – | – | – | – | N-(3,4-dichlorophenyl)-2-(3-trifluoromethoxy) benzamide [IMB17-15] | – | – | has hepatoprotective effects
